What was measured:
Format in all cases: binding
[1] = test system: rabbit anti-thyroxine (T4) serum; assay: assay of thyroxine by mixed agglutination; settings: maximum = Ag-latex alone
Protocol: This Example illustrates the assay of thyroxine. […] After incubation at 0° for 1 hour, 250 μl of 25% ethanolamine in PBS was added, and the incubation prolonged for 30 minutes. The latex was then washed twice by centrifugation and resuspension in fresh PBS (1 ml each time), and then dialysed for 16 hours at 4° against 1 l PBS. […] The method of this latex preparation was exactly the same as for the assay of digoxin (Example 1) except that the Ab was from rabbit anti-thyroxine (T4) serum. […] The maximum value in this case was for the Ag-latex alone, all the above values being found in the presence of Ag-latex as well.

sheep anti-digoxin serum [2] = assay: latex immunoassay of digoxin read by turbidimetry (optical density at 400 nm)
sheep anti-digoxin serum [3] = assay: assay of digoxin by mixed agglutination of Ab-latex and conjugate-latex, selective optical counting of unagglutinated particles; settings: Table 1
Protocol: This Example illustrates the assay of digoxin.
(§1) Latex particles (0.09μ diameter, polystyrene, Dow Chemical Co.) as a 10% by weight suspension as supplied) was diluted 20-fold in dilute glycine-buffered saline (dGBS-20 mM glycine, 34 mM NaCl, pH 9) containing 0.2 mg/ml of the Rivanol-soluble fraction (prepared by the method of Stastny and Horejsi, Clin. Chim. Acta (1961), 6, 782) of sheep anti-digoxin serum, and incubated at room temperature for 30 minutes. 1/10th volume of 10 mg bovine serum albumin (bSA) per ml. dGBS was then added (to ensure that the latex was completely coated with protein), and after a further 30 minutes incubation, the coated latex was washed twice by centrifugation and resuspended in dGBS. Finally, the coated latex was resuspended as a 0.5% suspension in GBS (0.1 M glycine, 0.17 M NaCl, pH 9) containing 1 mg bSA/ml.
(§2) The same procedure was followed as in (a) except that the latex used was of 1.1μ diameter and incubation was performed at an Ag-conjugate concentration of 4μg/ml, followed by the addition of 1/10 volume of 10 mg/ml transferrin. The Ag-conjugate was prepared by the oxidative coupling of digoxin and ethylene glycol followed by reductive coupling of this complex to the protein. 50 mg digoxin dissolved in 2 ml absolute alcohol was incubated for 25 minutes with 2 ml 0.1 M NalO4, then 60 μl of ethylene glycol was added for a further 5 minutes incubation. This reaction mixture was then added to a solution of 60 mg human transferrin in 2 ml water, brought to pH 9.5 by addition of 5% Na2 CO3, and incubated for 45 minutes. 30 mg NaBH4 freshly dissolved in 2 ml water was added and incubation was continued for 3 hours. At the end of this time, the pH of the reaction mixture was reduced to 6.5 by addition of 1 M HCOOH to destroy any unreacted NaBH4, and after a further hour of incubation, 1 M NH4 OH was added to raise the pH to 8.5, and the preparation was dialysed against running water for 2 days at 4° C. (all other operations were at room temperature).
(§3) Sera used for the assay of digoxin were first heated with acid to reduce serum intereference. 25 μl of serum was heated to 56° C. for 10 minutes with 25 μl of 0.1 N HCl, then made alkaline by the addition of 10 μl 2 M Na2 CO3. To these heated sera were added 25 μl of Ab-latex (diluted 1:10 with GBS containing 1 mg bSA/ml) and 25 μl of conjugate-latex (diluted 1:4 with GBS containing 1 mg human transferrin/ml). They were then incubated in vertically-positioned tubes agitated horizontally on a shaking incubator for 15 minutes at room temperature. At the end of this time, the tube contents were diluted with 5 ml GBS and after a further 20-fold dilution with GBS containing 0.01% Tween 20, passed through the flowcell of a Technicon Autocounter at 2 ml/min. The relative numbers of unagglutinated (monomer) latex particles in each sample were determined (as also may be the relative numbers of agglutinated particles) by selective optical counting.
In the selective optical counting of particles, the amount of light scattered by a particle is dependent on the size of the particle; in turn, the electronic impulse generated in the photocell will be proportional to the size of the particle, and particles of different sizes may be counted separately. Table 2 illustrates the improvement in precision of determination (by providing a more extended range for the standard curve) that may be obtained by counting only unagglutinated particles (monomers) as opposed to counting all particles (total). […]

sheep anti-digoxin serum [4] = assay: Example 3: digoxin mixed agglutination with equal-sized or different-sized latex
Protocol: as §1, §2, §3
Example 1 was repeated using latex particles of the same (as opposed to different) size and the following results were obtained: […]

sheep anti-digoxin serum [5] = assay: assay of digoxin by mixed agglutination of Ab-latex and conjugate-latex, selective optical counting of unagglutinated particles; settings: Table 3
[6] = latex immunoassay of hPL, comparison of counting methods; settings: 2.5 ngs hPL/ml
Description: In the selective optical counting of particles, the amount of light scattered by a particle is dependent on the size of the particle; in turn, the electronic impulse generated in the photocell will be proportional to the size of the particle, and particles of different sizes may be counted separately. Table 2 illustrates the improvement in precision of determination (by providing a more extended range for the standard curve) that may be obtained by counting only unagglutinated particles (monomers) as opposed to counting all particles (total). The Table also illustrates the great increase in sensitivity that may be realized by calculating the ratio of unagglutinated to agglutinated particles (monomer/polymer ratio). By counting particles at all, an increase in sensitivity and precision may be realized by comparison with other methods of end-point determination.

## N[C@@H](Cc1cc(I)c(Oc2cc(I)c(O)c(I)c2)c(I)c1)C(=O)O [T4, thyroxine]
[1]; 10 ng T4/ml serum
  Particle concentration (% maximum): 51.5%
[1]; 50 ng T4/ml serum
  Particle concentration (% maximum): 59.5%
[1]; 200 ng T4/ml serum
  Particle concentration (% maximum): 89%

## C[C@H]1O[C@@H](O[C@H]2[C@@H](O)C[C@H](O[C@H]3[C@@H](O)C[C@H](O[C@H]4CC[C@@]5(C)[C@H](CC[C@@H]6[C@@H]5C[C@@H](O)[C@]5(C)[C@@H](C7=CC(=O)OC7)CC[C@]65O)C4)O[C@@H]3C)O[C@@H]2C)C[C@H](O)[C@@H]1O [Digoxin, digoxin]
Sheep anti-digoxin serum [2]; digoxin 0.31 ng/ml in serum
  Turbidity: 74 percentage of that found in th
Sheep anti-digoxin serum [2]; digoxin 0.625 ng/ml in serum
  Turbidity: 71 percentage of that found in th
Sheep anti-digoxin serum [2]; digoxin 1.25 ng/ml in serum
  Turbidity: 82 percentage of that found in th
Sheep anti-digoxin serum [2]; digoxin 2.5 ng/ml in serum
  Turbidity: 100 percentage of that found in th
Sheep anti-digoxin serum [2]; digoxin 5.0 ng/ml in serum
  Turbidity: 100 percentage of that found in th
Sheep anti-digoxin serum [3]; digoxin 0.31 ng/ml in serum
  Unagglutinated Particles (as % of maximum): 40%
Sheep anti-digoxin serum [3]; digoxin 0.625 ng/ml in serum
  Unagglutinated Particles (as % of maximum): 44%
Sheep anti-digoxin serum [3]; digoxin 1.25 ng/ml in serum
  Unagglutinated Particles (as % of maximum): 63%
Sheep anti-digoxin serum [3]; digoxin 2.5 ng/ml in serum
  Unagglutinated Particles (as % of maximum): 90%
Sheep anti-digoxin serum [3]; digoxin 5.0 ng/ml in serum
  Unagglutinated Particles (as % of maximum): 100%
Sheep anti-digoxin serum [4]; Different-sized latex, digoxin 1 ng/ml in serum
  Unagglutinated Particles (as % of maximum): 30%
Sheep anti-digoxin serum [4]; Different-sized latex, digoxin 4 ng/ml in serum
  Unagglutinated Particles (as % of maximum): 76%
Sheep anti-digoxin serum [4]; Different-sized latex, digoxin 10 ng/ml in serum
  Unagglutinated Particles (as % of maximum): 100%
Sheep anti-digoxin serum [4]; Equal-sized latex, digoxin 1 ng/ml in serum
  Unagglutinated Particles (as % of maximum): 78%
Sheep anti-digoxin serum [4]; Equal-sized latex, digoxin 4 ng/ml in serum
  Unagglutinated Particles (as % of maximum): 95%
Sheep anti-digoxin serum [4]; Equal-sized latex, digoxin 10 ng/ml in serum
  Unagglutinated Particles (as % of maximum): 100%
Sheep anti-digoxin serum [5]; digoxin 0.31 ng/ml in serum
  Particle count (monomers): 40 percentage of that found in th
Sheep anti-digoxin serum [5]; digoxin 0.625 ng/ml in serum
  Particle count (monomers): 44 percentage of that found in th
Sheep anti-digoxin serum [5]; digoxin 1.25 ng/ml in serum
  Particle count (monomers): 63 percentage of that found in th
Sheep anti-digoxin serum [5]; digoxin 2.5 ng/ml in serum
  Particle count (monomers): 90 percentage of that found in th
Sheep anti-digoxin serum [5]; digoxin 5.0 ng/ml in serum
  Particle count (monomers): 100 percentage of that found in th

B1: hPL: human placental lactogen (protein, UniProt P0DML2 27-217, looked up)
Chorionic somatomammotropin …: VQTVPLSRLFDHAMLQAHRAHQLAIDTYQEFEETYIPKDQKYSFLHDSQTSFCFSDSIPTPSNMEETQQKSNLELLRISLLLIESWLEPVRFLRSMFANNLVYDTSDSDDYHLLKDLEEGIQTLMGRLEDGSRRTGQILKQTYSKFDTNSHNHDALLKNYGLLYCFRKDMDKVETFLRMVQCRSVEGSCGF
[6]
  Monomer/polymer ratio: 81 percentage of that obtained in
